Measurements published in patent publication US11571441B2, “Sideroflexins as mitochondrial serine transporters” (Whitehead Institute for Biomedical Research, priority 2018, dated 2023).
Entries after “also recorded” stand apart in the source; their conditions may differ. Read-outs that look alike come from different tables or passages of the source.

T1: SFXN1 (Homo sapiens, UniProt Q9H9B4)
T1 construct: made in house
T1 sequence (Q9H9B4 1-322): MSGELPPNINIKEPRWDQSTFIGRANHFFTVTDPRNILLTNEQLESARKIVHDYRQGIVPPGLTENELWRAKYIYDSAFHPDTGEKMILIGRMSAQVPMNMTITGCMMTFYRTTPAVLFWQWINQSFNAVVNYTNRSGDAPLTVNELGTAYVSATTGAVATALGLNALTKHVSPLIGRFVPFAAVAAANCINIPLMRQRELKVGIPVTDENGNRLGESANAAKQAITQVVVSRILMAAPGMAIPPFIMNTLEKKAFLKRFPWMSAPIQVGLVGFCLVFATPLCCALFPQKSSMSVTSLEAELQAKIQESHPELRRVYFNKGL

B1: SFXN1 (Homo sapiens) (protein)
chain: T1 sequence (Q9H9B4 1-322)
notes: made in house

Tests used:
[1] = molecular target: T1, SFXN1; experiment: In vitro transport assay: [3H] serine/alanine uptake into SFXN1 proteoliposomes; type: biochemical; conditions: for competition of serine uptake by different metabolites (FIG. 3B) / competition of serine uptake by different metabolites (FIG. 3C): after 60 min, SFXN1 liposomes; for competition of serine uptake by different metabolites (FIG. 3C): metabolites at 500 μM; for Km: steady-state kinetic analysis, proteoliposomes
Protocol: (§1) In vitro transport assays were performed as described previously with the following specifications. Flag-SFXN1 was purified from 293T cells stably expressing the protein using FLAG-affinity purification and eluted off beads with FLAG peptide.
(§2) 1% Phosphatidylcholine was added to total E. coli lipids in chloroform, evaporated under nitrogen and desiccated overnight. Dried lipids were hydrated in inside buffer (20 mM MES pH 7, 50 mM NaCl, 20 mM KCl) by freeze-thawing in liquid nitrogen 20× times. Lipids were extruded 6× though a 0.4 μm filter and 15× through a 0.1 μm filter. 15 ug of purified SFXN1 protein were reconstituted into 1.2 mg liposomes using a detergent:lipid ratio of 5:1 with the addition of 1 mM DTT in inside buffer rotating at 4 degree for 1 hour. The proteoliposomes were incubated for 3 sequential rounds with Bio-beads to remove detergent. A liposome-only control was prepared by replacing the protein with inside buffer in the reconstitution reaction. Incorporation of protein into liposomes was assessed using glycerol gradient centrifugation. A buffer containing 20 mM Tris-HCL pH 7.4 and 100 mM NaCl was used as outside buffer in transport reactions.
In vitro transport assays were performed as described previously (43, 44) with the following specifications. FLAG-SFXN1 was purified from HEK-293T cells stably expressing the protein using FLAG-affinity purification and eluted off the beads with the FLAG peptide.
1% Phosphatidylcholine was added to total E. coli lipids in chloroform, evaporated under nitrogen and desiccated overnight. Dried lipids were hydrated in inside buffer (20 mM MES pH 7, 50 mM NaCl, 20 mM KCl) by freeze-thawing in liquid nitrogen 20× times. Lipids were extruded 6× through a 0.4 μm filter and 15× through a 0.1 μm filter. 15 μg of purified SFXN1 protein were reconstituted into 1.2 mg liposomes using a detergent:lipid ratio of 5:1 with the addition of 1 mM DTT in inside buffer rotating at 4° C. for 1 hour. The proteoliposomes were incubated for 3 sequential rounds with Bio-Beads to remove detergent. A liposome-only control was prepared by replacing the protein with inside buffer in the reconstitution reaction. Incorporation of protein into liposomes was assessed using a glycerol gradient centrifugation assay. [3H] […] Different lots of total E. coli lipid extracts were tested and ones that optimally preserved SFXN1 activity were used in experiments.

[2] = tested on: SFXN1/3-null Jurkat cells; experiment: Cell proliferation assay in glycine-deficient media, formate rescue; type: cell-based, human; conditions: 1 mM formate, cells cultured with it 2 days before the experiment
Protocol: (§3) 10,000 cells per well were seeded into 96 well plates in triplicate. Cell titer glo reagent (Promega) was added to one plate immediately after seeding and luminescence was measured, while a second plate was read-out 4 days after seeding. Number of doublings in 4 days was determined by calculating the log2 fold-change in signal between day 0 and 4. For formate rescue experiments, 1 mM formate was added to cells at time of seeding (Jurkat cells) or cells were cultured in formate-containing media for 1 week prior to the experiment (K562 cells) unless indicated otherwise.
(§4) 10,000 cells per well were seeded into 96-well plates in triplicate. Cell titer glo reagent (Promega) was added to one plate immediately after seeding and luminescence was measured, while a second plate was read-out 4 days after seeding. Number of doublings in 4 days was determined by calculating the log2 fold-change in signal between day 0 and 4. For formate rescue experiments, 1 mM formate was added to media at the time of seeding (Jurkat cells) or cells were cultured in formate-containing media for 1 week prior to the experiment (K562 cells) unless indicated otherwise.

[3] = tested on: SFXN1-null Jurkat cells; experiment: LC-MS metabolite quantification (purine synthesis intermediates, serine, glycine) in SFXN1-null cells; type: cell-based, human; conditions: 1 mM formate, 24 hours in indicated media
Protocol: Quantification of metabolite abundance using LC/MS-based metabolomics was performed and analyzed as previously described. Briefly, Jurkat or K562 cells were seeded at densities of 0.6×10^6 per ml and 0.33×10^6 per ml, respectively. 24 h later, 2×10^6 Jurkat or 1×10^6 K562 cells were harvested, washed once in ice-cold 0.9% saline prepared with LC-MS grade H2O, and extracted with 80% methanol containing 500 nM isotope-labeled amino acids as internal standards (Cambridge Isotope Laboratories). The samples were vortexed for 10 min at 4° C. and spun down at 17,000×g. The supernatant was dried by vacuum centrifugation at 4° C. Samples were stored at −80° C. until analyzed. On the day of analysis, samples were resuspended in 50-100 μL of LC/MS grade water and the insoluble fraction was cleared by centrifugation at 15,000 rpm. The supernatant was then analyzed as previously described by LC/MS (21, 33). […]
Metabolite abundance using LC/MS-based metabolomics was measured and quantified as previously described (15). […] Samples were stored at −80° C. until analyzed. […] The supernatant was then analyzed as previously described by LC-MS (15, 38) Amino acids were normalized to their respective internal standards, purine synthesis intermediates were normalized to the glutamate internal standard. […]

[4] = tested on: SFXN1-null cells (Jurkat and K562); experiment: Cell proliferation assay (Cell titer glo) in serine-deficient media, formate rescue; type: cell-based, human; conditions: 1 mM formate added, 4 days
Protocol: as §3, §4

[5] = tested on: SFXN1; experiment: Amino acid uptake into mitochondria isolated from wild-type or SFXN1-null Jurkat cells; type: biochemical, human; conditions: 0.75 μM [3H] serine or 3 μM [3H] glutamate, 30° C.
Protocol: Mitochondria from wild-type or SFXN1-null Jurkat cells were prepared according to (45). Briefly, cells (˜1 g starting material) were resuspended in low tonicity buffer (100 mM sucrose, 10 mM MOPS pH 7.2, 1 mM EGTA, 0.1% BSA) and disrupted with 20 strokes in a homogenizer containing a pure PTFE head (VWR International) and two strokes with a dounce tissue grinder with tight-fitting pestle (DWK Life Sciences Kimbl Kontes). After adjusting tonicity, lysates were spun twice at 950×g to remove unbroken cells and nuclei, and mitochondria were pelleted by centrifuging at 10,000×g for 10 min. […] Mitochondrial preparations were adjusted for protein content. […] 50 μl samples were collected immediately after start of the reaction and at 1, 2, 3 mins and added to mixed cellulose-ester filters (Fisher Scientific, 0.22 μm pore size) connected to a vacuum line (adapted from (47)). Filters were washed with 3 mL of ice cold TBS and the radioactivity remaining on the filters was measured using a scintillation counter. Blank reaction samples, in which mitochondria were replaced with incubation media, were used to subtract the background. The uptake rate was calculated from the first two minutes of the reaction.

[6] = substrate: C[C@H](N)C(=O)O; experiment: purified protein, by the assay type; conditions: other: steady-state kinetic analysis; proteoliposomes
[7] = substrate: N[C@@H](CO)C(=O)O; experiment: purified protein, by the assay type; type: biochemical, human; conditions: other: steady-state kinetic analysis; proteoliposomes; [3H] serine 1 μM with increasing unlabeled serine
Protocol: as §1
as §2, with “reactions. […]” for “reactions.”
1% Phosphatidylcholine was added to total E. coli lipids in chloroform, evaporated under nitrogen and desiccated overnight. […] Incorporation of protein into liposomes was assessed using a glycerol gradient centrifugation assay. […]

| Molecule | competition of serine uptake by different metabolites (FIG. 3B) [1] | competition of serine uptake by different metabolites (FIG. 3C) [1] | other results |
| --- | --- | --- | --- |
| N[C@H](CO)C(=O)O [D-serine] | able to complete serine uptake | competed with the transport of the labelled serine | – |
| N[C@@H](CO)C(=O)O [L-serine] | able to complete serine uptake | competed with the transport of the labelled serine | – |
| C[C@H](N)C(=O)O [alanine] | able to complete serine uptake | competed with the transport of the labelled serine; also recorded: partially competed with serine | Km ([1]; read-out: Km of SFXN1-mediated alanine transport): ~371 µM |
| O=C(O)CC(O)(CC(=O)O)C(=O)O [citrate] | – | Neither formate nor citrate competed with serine transport; also recorded: does not compete with serine | – |
| N[C@@H](CS)C(=O)O [cysteine] | – | competed with the transport of the labelled serine; also recorded: partially competed with serine | – |
| O=CO [formate] | not able to complete serine uptake | Neither formate nor citrate competed with serine transport | rescue of proliferation of SFXN1/3-null cells in the absence of glycine [2]: unable to rescue the growth defect; also recorded: did not reverse their proliferation defect; also recorded: does not rescue proliferation; accumulation of purine synthesis intermediates (GAR, SAICAR, AICAR) in SFXN1-null cells [3]: completely abolish their accumulation; also recorded: abolished the accumulation of the intermediates; also recorded: reverses the accumulation of purine synthesis intermediates; glycine levels and serine/glycine ratio of SFXN1-null cells [3]: without rescuing the cellular serine and glycine levels; also recorded: did not rescue the defects in glycine levels; also recorded: does not rescue glycine levels and serine/glycine ratio; rescue of proliferation of SFXN1-null cells in serine-deficient media [4]: completely restored growth of SFXN1-null cells; also recorded: completely reversed the slow proliferation; also recorded: rescues growth |
| N[C@@H](CCC(=O)O)C(=O)O [glutamate] | – | – | radioactive amino acid uptake into mitochondria from SFXN1-null cells compared to wild-type [5]: unaffected; also recorded: unchanged |
| NCC(=O)O [glycine] | – | competed with the transport of the labelled serine; also recorded: partially competed with serine | – |
| N[C@@H](CO)C(=O)O [serine] | – | – | radioactive amino acid uptake into mitochondria from SFXN1-null cells compared to wild-type [5]: reduced; Km ([1]; [3H] serine 1 μM with increasing unlabeled serine, read-out: Km of SFXN1-mediated serine transport): 170 µM |
| B1 | – | – | Km [6]: 371 µM; Km [7]: 170 µM; Vmax [7]: 8.2 pmol/min |
